Calls of active or inactive are those of the source. The rule behind the calls is not given here.
Tests used:
MDA-MB-468 [1] = test: Percentage viability of compound against MDA-MB-468 cell line; NE means No effect; type: functional, cell-based; conditions: Homo sapiens
MCF7 [2] = test: Percentage viability of compound against MCF-7 cell line; NE means No effect; type: functional, cell-based; conditions: Homo sapiens
SK-N-MC [3] = test: Percentage viability of compound against SK-N-MC cell line; NE means No effect; type: functional, cell-based; conditions: Homo sapiens
T47D [4] = test: Percentage viability of compound against T47D cell line; NE means No effect; type: functional, cell-based; conditions: Homo sapiens
MCF7 [5] = test: Percentage viability of compound against MCF-7 cell line; type: functional, Homo sapiens
SK-N-MC [6] = test: Percentage viability of compound against SK-N-MC cell line; 92-94%; type: functional, Homo sapiens
T47D [7] = test: Percentage viability of compound against T47D cell line; 92-94%; type: functional, Homo sapiens
MDA-MB-468 [8] = test: Percentage viability of compound against MDA-MB-468 cell line; 92-94%; type: functional, Homo sapiens

Row | Compound | Viability (MDA-MB-468 [1]) | Viability (MCF7 [2]) | Viability (SK-N-MC [3]) | Viability (T47D [4]) | Viability (MCF7 [5]) [%] | Viability (SK-N-MC [6]) [%] | Viability (T47D [7]) [%] | Viability (MDA-MB-468 [8]) [%]
1 | CCCCCCCCCCCCCCCCOC[C@H](/C=C/P(=O)([O-])OCC[N+](C)(C)C)OC | inactive | inactive | inactive | inactive | – | – | – | –
2 | CCCCCCCCCCCCCCCCOC[C@@H](/C=C/P(=O)([O-])OCC[N+](C)(C)C)OC | – | – | – | – | 61 | <94 | <94 | <94
